Measured values reported in patent US10968193B2, “Antidiabetic bicyclic compounds” (Merck Sharp & Dohme Corp., priority 2014, dated 2021).

biological target: T1, human GPR40 (Homo sapiens, UniProt O14842); test: Inositol Phosphate Turnover (IP1) Assay 3; format: cell-based; details: HEK cells stably expressing human GPR40
T1 construct: expressed in transfected cells; host or cells: HEK cells stably expressing the aequorin reporter
Procedure: Human and mouse GPR40 stable cell-lines were generated in CHO cells stably expressing NFAT BLA (Beta-lactamase). A human GPR40 stable cell-line was generated in HEK cells stably expressing the aequorin expressing reporter. The expression plasmids were transfected using lipofectamine (Life Technologies) following manufacturer's instructions. Stable cell-lines were generated following drug selection.
Inositol Phosphate Turnover (IP1) Assay 3:
The assay was performed in 384-well format. HEK cells stably expressing human GPR40 were plated at 7500 cells per well in growth medium (DMEM/10% fetal calf serum). Cell plates were then incubated 16 hours at 37 degrees in a 5% CO2 incubator.
Measurement of Inositol Phosphate Turnover (IP) was performed using the CisBio IP-One kit (Part number 62IPAPEB). After the 16 hour incubation, the growth media was removed by centrifugation using the BlueWasher (AusWasher GUI Ver. v1.0.1.8) Protocol #21—“Light Dry” and 10 ul of stimulation buffer (prepared as described in the kit) was added to each well. In a separate plate, compounds were diluted in DMSO (200-fold over the final concentration in the assay well) and 50 nl was acoustically transferred to the appropriate well in the assay cell plate. The plates were then incubated for 60 minutes at 37 degrees in a 5% CO2 incubator. 10 ul of detection buffer (also prepared as described in the IP-One kit) was added to each well and the plates were incubated at rt for 60 minutes in the dark. The plates were then read in a Perkin Elmer EnVision or equivalent reader able to measure FRET. Fluorescent ratio of emission at 665 and 620 nm was then converted to IP1 concentration by back calculating from an IP1 standard curve prepared at the time of the assay. Data is normalized to % activity using a reference compound and EC50s determined using a standard 4-parameter fit.

T1 sequence (O14842 whole entry): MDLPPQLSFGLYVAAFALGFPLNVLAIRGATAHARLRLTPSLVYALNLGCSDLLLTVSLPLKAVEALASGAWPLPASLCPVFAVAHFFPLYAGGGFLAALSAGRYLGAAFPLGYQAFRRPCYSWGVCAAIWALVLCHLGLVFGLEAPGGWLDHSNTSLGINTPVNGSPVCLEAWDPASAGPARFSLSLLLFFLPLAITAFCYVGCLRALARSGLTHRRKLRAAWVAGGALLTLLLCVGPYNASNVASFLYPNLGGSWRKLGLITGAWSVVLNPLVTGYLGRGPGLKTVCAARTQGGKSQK

**Q.** With COc1cc(-c2ccc(C3CCc4ccc([C@H](C5CC5)[C@H](C)C(=O)O)cc4O3)c(CN3CCCC3(C)C)c2)ccn1 (mixture of isomers) [Example 111, (2S,3R)-3-cyclopropyl-3-(2-(2-((2,2-dimethylpyrrolidin-1-yl)methyl)-4-(2-methoxypyridin-4-yl)phenyl)chroman-7-yl)-2-methylpropanoic acid] as the compound, how does the EC50 read?
**A.** 0.7 nM

**Q.** With CCN(Cc1cc(-c2ccnc(OC)c2)ccc1C1CCc2ccc([C@H](C3CC3)[C@H](C)C(=O)O)cc2O1)C(C)C (mixture of isomers) [Example 113] as the compound, how does the EC50 read?
**A.** 0.7 nM

**Q.** Which EC50 does the source give for COc1cc(-c2ccc(C3CCc4ccc([C@H](C5CC5)[C@H](C)C(=O)O)cc4O3)c(CN(C)C(C)(C)C)c2)ccn1 (mixture of isomers) [Example 114] here?
**A.** 5 nM

**Q.** For COc1cc(-c2ccc(C3CCc4ccc([C@H](C5CC5)[C@H](C)C(=O)O)cc4O3)c(CN(C(C)C)C(C)C)c2)ccn1 (mixture of isomers) [Example 115], which EC50 is on record?
**A.** 0.1 nM

**Q.** For COc1cc(-c2ccc(C3CCc4ccc([C@H](C5CC5)[C@H](C)C(=O)O)cc4O3)c(CN3CCCCC3(C)C)c2)ccn1 (mixture of isomers) [Example 117], which EC50 is on record?
**A.** 0.6 nM

**Q.** COc1cc(-c2ccc(C3CCc4ccc([C@H](C5CC5)[C@H](C)C(=O)O)cc4O3)c(CN3CCCC[C@H]3C)c2)ccn1 (mixture of isomers) [Example 120] was tested. Which EC50 did it give?
**A.** 0.7 nM

**Q.** For CCN(Cc1cc(-c2cc(OC)ncc2F)ccc1C1CCc2ccc([C@H](C3CC3)[C@H](C)C(=O)O)cc2O1)C(C)C (mixture of isomers) [Example 124], which EC50 is on record?
**A.** 0.3 nM

**Q.** Which EC50 does the source give for COc1cc(-c2ccc(C3CCc4ccc([C@H](C5CC5)[C@H](C)C(=O)O)cc4O3)c(CN(C)C(C)(C)C)c2)c(F)cn1 (mixture of isomers) [Example 125] here?
**A.** 2.2 nM

**Q.** COc1cc(-c2ccc(C3CCc4ccc([C@H](C5CC5)[C@H](C)C(=O)O)cc4O3)c(CN(C(C)C)C(C)C)c2)c(F)cn1 (mixture of isomers) [Example 126] was tested. Which EC50 did it give?
**A.** 0.1 nM

**Q.** How did the EC50 turn out when COc1cc(-c2ccc(C3CCc4ccc([C@H](C5CC5)[C@H](C)C(=O)O)cc4O3)c(CN3CCCCC3(C)C)c2)c(F)cn1 (mixture of isomers) [Example 128] was run?
**A.** 0.16 nM

**Q.** CCOc1cc(-c2ccc(C3CCc4ccc([C@H](C5CC5)[C@H](C)C(=O)O)cc4O3)c(CN(C)C(C)(C)C)c2)c(F)cn1 (mixture of isomers) [Example 132] was tested. Which EC50 did it give?
**A.** 4.8 nM

**Q.** Which EC50 does the source give for COCC(c1cc([C@H]2CCc3ccc([C@H](C4CC4)[C@H](C)C(=O)O)cc3O2)ccc1-c1ccnc(OC)c1)N1CCCC1 (mixture of isomers) [Example 179, (2S, 3R)-3-cyclopropyl-3-((2R)-2-(3-(2-methoxy-1-(pyrrolidin-1-yl)ethyl)-4-(2-methoxypyridin-4-yl)phenyl)chroman-7-yl)-2-methylpropanoic acid] here?
**A.** 17 nM

**Q.** CCN(CC)Cc1cc(C2CCc3ccc([C@H](C4CC4)[C@H](C)C(=O)O)cc3O2)ccc1-c1cc(OC)ncc1C#N (mixture of isomers) [Example 197] was tested. Which EC50 did it give?
**A.** 2.9 nM

**Q.** Which EC50 does the source give for CCN(CC)Cc1cc(C2CCc3ccc([C@H](C4CC4)[C@H](C)C(=O)O)cc3O2)ncc1-c1cc(OC)ncc1F (single isomer, unassigned) [Example 86] here?
**A.** 1.4 nM

**Q.** CCN(CC)Cc1cc(C2CCc3ccc([C@H](C4CC4)[C@H](C)C(=O)O)cc3O2)ncc1-c1cc(OC)ncc1F (single isomer, unassigned) [Example 87] was tested. Which EC50 did it give?
**A.** 6.6 nM

**Q.** With CCN(CC)Cc1nc(C2CCc3ccc([C@H](C4CC4)[C@H](C)C(=O)O)cc3O2)ccc1-c1cc(OC)ncc1F (single isomer, unassigned) [Example 88] as the compound, how does the EC50 read?
**A.** 6.7 nM

**Q.** With CCN(CC)Cc1nc(C2CCc3ccc([C@H](C4CC4)[C@H](C)C(=O)O)cc3O2)ccc1-c1cc(OC)ncc1F (single isomer, unassigned) [Example 89] as the compound, how does the EC50 read?
**A.** 0.9 nM

**Q.** With COc1cc(-c2ccc(C3CCc4ccc([C@H](C5CCC5)[C@H](C)C(=O)O)cc4O3)cc2CN2[C@H](C)CC[C@H]2C)c(F)cn1 (single isomer, unassigned) [Example 96] as the compound, how does the EC50 read?
**A.** 0.06 nM
